The source of these data is patent US11505543B2, “4-oxo-3,4-dihydroquinazoline compounds as inhibitors of human immunodeficiency virus replication” (VIIV HEALTHCARE UK (NO.5) LIMITED, priority 2018, dated 2022).

What is called EC50 is the concentration at which the effect is half-maximal. As a reminder, the CC50 is the concentration at which the toxic effect on the cells reaches its halfway point. High values mean better tolerance by the cells, low ones harm at low concentration.

The subject of series [1] is recombinant NL4-3 virus (nef section replaced with Renilla luciferase gene) in MT-2 cells. As to the kind of experiment: HIV cell culture assay (antiviral activity, luciferase readout). The following applies: Renilla, NL43, MT-2 cells infected for 4-5 days with recombinant NL4-3 Renilla luciferase virus, serial dilutions of compound. The class given is cell-based. In a few lines:
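EC50 was derived by median-effect curve fitting of luciferase activity. The signal comes from MT-2 cells infected for 4–5 days with 293T-produced NL4-3 reporter virus, nef partly replaced by Renilla luciferase, in the presence of serially diluted compound.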

Series [2] can be described thus: Compound cytotoxicity, XTT-based colorimetric assay. In kind it is cell-based. The following applies: human, uninfected MT2 cells, day 4, XTT. In a few lines:
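Run under the antiviral-assay protocol but without virus. Viability was read on day 4 and CC50 values were derived from the readout.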
Background: Tetrazolium dyes change colour on reduction, which living cells bring about.

A value given as a limit tells only on which side of the number the result lay.

On to `Cn1nc(NS(C)(=O)=O)c2c(Cl)ccc(-n3c([C@H](Cc4cc(F)cc(F)c4)NC(=O)Cn4nc(C(F)F)c5c4C(F)(F)[C@@H]4C[C@H]54)nc4cc(-c5cc[nH]n5)ccc4c3=O)c21` (atropisomer, axis not shown; (aR)) [Example 78, N-((S)-1-(3-(4-chloro-1-methyl-3-(methylsulfonamido)-1H-indazol-7-yl)-4-oxo-7-(1H-pyrazol-3-yl)-3,4-dihydroquinazolin-2-yl)-2-(3,5-difluorophenyl)ethyl)-2-((3bS,4aR)-3-(difluoromethyl)-5,5-difluoro-3b,4,4a,5-tetrahydro-1H-cyclopropa[3,4]cyclopenta[1,2-c]pyrazol-1-yl)acetamide], for which, in series [1], the 50% effective concentration (EC50) is 0.12 nM. Also, the CC50 at 4 day in series [2] is above 1000 nM.

On to `CCS(=O)(=O)c1ccccc1-c1ccc2c(=O)n(-c3ccc(Cl)c4c(NS(C)(=O)=O)nn(C)c34)c([C@H](Cc3cc(F)cc(F)c3)NC(=O)Cn3nc(C(F)F)c4c3C(F)(F)[C@@H]3C[C@H]43)nc2c1` (atropisomer, axis not shown; (aR)) [Example 119, N-((S)-1-(3-(4-chloro-1-methyl-3-(methylsulfonamido)-1H-indazol-7-yl)-7-(2-(ethylsulfonyl)phenyl)-4-oxo-3,4-dihydroquinazolin-2-yl)-2-(3,5-difluorophenyl)ethyl)-2-((3bS,4aR)-3-(difluoromethyl)-5,5-difluoro-3b,4,4a,5-tetrahydro-1H-cyclopropa[3,4]cyclopenta[1,2-c]pyrazol-1-yl)acetamide], for which the 50% effective concentration (EC50) in series [1] came to 0.1 nM. For the same molecule, in series [2], the 50% cytotoxic concentration (CC50) at 4 day is above 500 nM.

As for `Cc1nccnc1-c1ccc2c(=O)n(-c3ccc(Cl)c4c(NS(C)(=O)=O)nn(CC(F)(F)F)c34)c([C@H](Cc3cc(F)cc(F)c3)NC(=O)Cn3nc(C(F)F)c4c3C(F)(F)[C@@H]3C[C@H]43)nc2c1` [Example 165, N-((S)-1-(3-(4-chloro-3-(methylsulfonamido)-1-(2,2,2-trifluoroethyl)-1H-indazol-7-yl)-7-(3-methylpyrazin-2-yl)-4-oxo-3,4-dihydroquinazolin-2-yl)-2-(3,5-difluorophenyl)ethyl)-2-((3bS,4aR)-3-(difluoromethyl)-5,5-difluoro-3b,4,4a,5-tetrahydro-1H-cyclopropa[3,4]cyclopenta[1,2-c]pyrazol-1-yl)acetamide], the EC50 in series [1] stood at 0.05 nM. Also, the CC50 at 4 day in series [2] is above 500 nM.

With `O=C(Cn1ccc(C2CC2)n1)N[C@@H](Cc1cc(F)cc(F)c1)c1nc2cc(-c3cc(F)ccc3F)ccc2c(=O)n1-c1ccc(S(=O)(=O)N2CCOCC2)cc1` [Example 19, (S)-2-(3-cyclopropyl-1H-pyrazol-1-yl)-N-(2-(3,5-difluorophenyl)-1-(7-(2,5-difluorophenyl)-3-(4-(morpholinosulfonyl)phenyl)-4-oxo-3,4-dihydroquinazolin-2-yl)ethyl)acetamide], in series [1], the concentration for a half-maximal effect (EC50) came out at 8.9 nM. The same molecule displayed a half-maximal cytotoxic concentration (CC50) at 4 day in series [2] above 1000 nM.

In the case of `Cn1nc(NS(C)(=O)=O)c2c(Cl)ccc(-n3c([C@H](Cc4cc(F)cc(F)c4)NC(=O)Cn4nc(C(F)F)c5c4C(F)(F)[C@@H]4C[C@H]54)nc4cc(-c5cnc(F)c(F)c5)ccc4c3=O)c21` (atropisomer, axis not shown; (aR)) [Example 25, N-((S)-1-(3-(4-chloro-1-methyl-3-(methylsulfonamido)-1H-indazol-7-yl)-7-(5,6-difluoropyridin-3-yl)-4-oxo-3,4-dihydroquinazolin-2-yl)-2-(3,5-difluorophenyl)ethyl)-2-((3bS,4aR)-3-(difluoromethyl)-5,5-difluoro-3b,4,4a,5-tetrahydro-1H-cyclopropa[3,4]cyclopenta[1,2-c]pyrazol-1-yl)acetamide], the EC50 in series [1] was 0.25 nM. In addition, in series [2], the CC50 at 4 day was above 1000 nM.

Consider `Cn1nc(NS(C)(=O)=O)c2c(Cl)ccc(-n3c([C@H](Cc4cc(F)cc(F)c4)NC(=O)Cn4nc(C(F)F)c5c4C(F)(F)[C@@H]4C[C@H]54)nc4cc(-c5cc(F)c(F)c(F)c5)ccc4c3=O)c21` (atropisomer, axis not shown; (aR)) [Example 108, N-((S)-1-(3-(4-chloro-1-methyl-3-(methylsulfonamido)-1H-indazol-7-yl)-4-oxo-7-(3,4,5-trifluorophenyl)-3,4-dihydroquinazolin-2-yl)-2-(3,5-difluorophenyl)ethyl)-2-((3bS,4aR)-3-(difluoromethyl)-5,5-difluoro-3b,4,4a,5-tetrahydro-1H-cyclopropa[3,4]cyclopenta[1,2-c]pyrazol-1-yl)acetamide], for which, in series [1], the EC50 is 0.78 nM. This molecule also registered a half-maximal cytotoxic concentration (CC50) at 4 day in series [2] above 1000 nM.

Regarding `O=C(Cn1ccc(C2CC2)n1)N[C@@H](Cc1cc(F)cc(F)c1)c1nc2cc(-c3ccccc3)ccc2c(=O)n1-c1ccc(S(=O)(=O)N2CCOCC2)cc1` [Example 144, (S)-2-(3-cyclopropyl-1H-pyrazol-1-yl)-N-(2-(3,5-difluorophenyl)-1-(3-(4-(morpholinosulfonyl)phenyl)-4-oxo-7-phenyl-3,4-dihydroquinazolin-2-yl)ethyl)acetamide], the concentration giving a half-maximal response (EC50) in series [1] is 16 nM. Besides, the half-maximal cytotoxic concentration (CC50) at 4 day in series [2] was above 500 nM.

As for `CNC(=O)c1ccc(-c2ccc3c(=O)n(-c4ccc(Cl)c5c(NS(C)(=O)=O)nn(C)c45)c([C@H](Cc4cc(F)cc(F)c4)NC(=O)Cn4nc(C(F)F)c5c4C(F)(F)[C@@H]4C[C@H]54)nc3c2)cc1` (atropisomer, axis not shown; (aR)) [Example 62, 4-(3-(4-chloro-1-methyl-3-(methylsulfonamido)-1H-indazol-7-yl)-2-((S)-1-(2-((3bS,4aR)-3-(difluoromethyl)-5,5-difluoro-3b,4,4a,5-tetrahydro-1H-cyclopropa[3,4]cyclopenta[1,2-c]pyrazol-1-yl)acetamido)-2-(3,5-difluorophenyl)ethyl)-4-oxo-3,4-dihydroquinazolin-7-yl)-N-methylbenzamide], the EC50 in series [1] came to 0.48 nM. The CC50 at 4 day in series [2] was above 1000 nM.

Consider `Cc1nccnc1-c1ccc2c(=O)n(-c3ccc(Cl)c4c(NS(=O)(=O)C5CC5)nn(CC(F)F)c34)c([C@H](Cc3cc(F)cc(F)c3)NC(=O)Cn3nc(C(F)F)cc3C(F)F)nc2c1` [Example 191, (S)-2-(3,5-bis(difluoromethyl)-1H-pyrazol-1-yl)-N-(1-(3-(4-chloro-3-(cyclopropanesulfonamido)-1-(2,2-difluoroethyl)-1H-indazol-7-yl)-7-(3-methylpyrazin-2-yl)-4-oxo-3,4-dihydroquinazolin-2-yl)-2-(3,5-difluorophenyl)ethyl)acetamide], for which, in series [1], the EC50 came to 1.5 nM. The cytotoxic concentration (CC50) at 4 day in series [2] is above 500 nM.

With `Cc1c(-c2ccc3c(=O)n(-c4ccc(Cl)c5c(NS(C)(=O)=O)nn(C)c45)c([C@H](Cc4cc(F)cc(F)c4)NC(=O)Cn4nc(C(F)F)c5c4C(F)(F)[C@@H]4CC54)nc3c2)cc(F)c2c1CCCO2` (stereo in doubt) [Example 53, N-((S)-1-(3-(4-chloro-1-methyl-3-(methylsulfonamido)-1H-indazol-7-yl)-7-(8-fluoro-5-methylchroman-6-yl)-4-oxo-3,4-dihydroquinazolin-2-yl)-2-(3,5-difluorophenyl)ethyl)-2-((3bS,4aR)-3-(difluoromethyl)-5,5-difluoro-3b,4,4a,5-tetrahydro-1H-cyclopropa[3,4]cyclopenta[1,2-c]pyrazol-1-yl)acetamide], the EC50 in series [1] came out at 2.1 nM. In addition, in series [2], the CC50 at 4 day is above 1000 nM.

Consider `O=C(Cn1ccc(C2CC2)n1)N[C@@H](Cc1cc(F)cc(F)c1)c1nc2cc(-c3ccccc3-c3ccccc3)ccc2c(=O)n1-c1ccc(S(=O)(=O)N2CCOCC2)cc1` [Example 146, (S)-N-(1-(7-([1,1′-biphenyl]-2-yl)-3-(4-(morpholinosulfonyl)phenyl)-4-oxo-3,4-dihydroquinazolin-2-yl)-2-(3,5-difluorophenyl)ethyl)-2-(3-cyclopropyl-1H-pyrazol-1-yl)acetamide], for which, in series [1], the 50% effective concentration (EC50) turned out to be 69 nM. Besides, the CC50 at 4 day in series [2] is above 500 nM.

Consider `Cn1nc(NS(C)(=O)=O)c2c(Cl)ccc(-n3c([C@H](Cc4cc(F)cc(F)c4)NC(=O)Cn4nc(C(F)F)c5c4C(F)(F)[C@@H]4C[C@H]54)nc4cc(-c5ccc(F)c(F)c5)ccc4c3=O)c21` [Example 173, N-((S)-1-(3-(4-chloro-1-methyl-3-(methylsulfonamido)-1H-indazol-7-yl)-7-(3,4-difluorophenyl)-4-oxo-3,4-dihydroquinazolin-2-yl)-2-(3,5-difluorophenyl)ethyl)-2-((3bS,4aR)-3-(difluoromethyl)-5,5-difluoro-3b,4,4a,5-tetrahydro-1H-cyclopropa[3,4]cyclopenta[1,2-c]pyrazol-1-yl)acetamide], for which the EC50 in series [1] turned out to be 0.68 nM. Moreover, in series [2], the cytotoxic concentration (CC50) at 4 day is above 500 nM.

As for `CC(C)S(=O)(=O)c1ccccc1-c1ccc2c(=O)n(-c3ccc(Cl)c4c(NS(C)(=O)=O)nn(C)c34)c([C@H](Cc3cc(F)cc(F)c3)NC(=O)Cn3nc(C(F)F)c4c3C(F)(F)[C@@H]3C[C@H]43)nc2c1` (atropisomer, axis not shown; (aR)) [Example 120, N-((S)-1-(3-(4-chloro-1-methyl-3-(methylsulfonamido)-1H-indazol-7-yl)-7-(2-(isopropylsulfonyl)phenyl)-4-oxo-3,4-dihydroquinazolin-2-yl)-2-(3,5-difluorophenyl)ethyl)-2-((3bS,4aR)-3-(difluoromethyl)-5,5-difluoro-3b,4,4a,5-tetrahydro-1H-cyclopropa[3,4]cyclopenta[1,2-c]pyrazol-1-yl)acetamide], in series [1], the half-maximal effective concentration (EC50) was found to be 0.13 nM. This molecule returned a CC50 at 4 day in series [2] above 500 nM.
